Results: article PMC9416745, “The Effect of 1,2,4-Triazole-3-thiol Derivatives Bearing Hydrazone Moiety on Cancer Cell Migration and Growth of Melanoma, Breast, and Pancreatic Cancer Spheroids” (Pharmaceuticals, 2022)
Each block holds one compound with its values, some of them ahead of it.

Tests used:
[1] = tested on: human triple-negative breast cancer MDA-MB-231; experiment: MTT cell viability assay, MDA-MB-231; type: cell-based
Protocol: (§1) The effect of synthesized compounds on cell viability was studied using 3-(4,5-dimethylthiazol-2-yl)-2,5-diphenyltetrazolium bromide (MTT; Sigma-Aldrich Co., St Louis, MO, USA) assay, as described elsewhere. Briefly, IGR39, MDA-MB-231, Panc-1, and HF cells were seeded in 96-well plates (Corning) in triplicate at a volume of 100 μL (IGR39, MDA-MB-231 and Panc-1: 4 × 10^3 cells/well; HF: 5 × 10^3 cells/well). After 24 h, cells were treated with 50 μM of tested compounds. After 72 h, the MTT reagent was added and cells were incubated for 4 h. Then the medium was aspirated, and the formed formazan crystals were dissolved in 100 μL DMSO (Sigma-Aldrich Co., St. Louis, MO, USA). The absorbance was measured at 570 and 630 nm using a multi-detection microplate reader. The compound effect on cell viability was calculated using the formula:(1) Relative cell viability (%)=A−A0/ANC−A0 where
(§2) • A—mean of absorbance of the tested compound, • A0—mean of absorbance of blank (no cells, positive control), and • ANC—mean of absorbance of negative control (only cells, no treatment).
(§3) The compound serial dilutions from 50 µM to 1.56 µM were made in a medium and added to the cells in triplicates. The EC50 value representing the concentration of a compound causing 50% reduction of cancer cell metabolic activity was calculated using the Hill equation.

[2] = tested on: human malignant melanoma cell line IGR39; experiment: MTT cell viability assay, IGR39; type: cell-based
Protocol: as §1, §2, §3

[3] = tested on: Human foreskin fibroblasts (HF) CRL-4001; experiment: MTT cell viability assay, fibroblasts; type: cell-based; details: 72 h
Protocol: as §1, §2, §3

[4] = tested on: human pancreatic carcinoma cell line Panc-1; experiment: MTT cell viability assay, Panc-1; type: cell-based; details: 72 h, serial dilutions 50-1.56 µM, n = 3, read-out: EC50 against Panc-1
Protocol: as §1, §2, §3

[5] = tested on: IGR39, MDA-MB-231 and Panc-1 tumour spheroids; experiment: 3D cell cultures (spheroids), stated for all three spheroid types; type: cell-based, human; details: 10 µM, 8 days of incubation
Protocol: (§4) Cancer cell spheroids were formed using the magnetic 3D Bioprinting method, as described elsewhere. Briefly, melanoma IGR39, triple-negative breast cancer MDA-MB-231 cells, pancreatic cancer Panc-1 cells, and human fibroblasts at 70% confluency in a 6-well plate were incubated with Nanoshuttle (n3D Biosciences, Inc., Houston, TX, USA) for 8 h at 37°C in a humidified atmosphere containing 5% CO2. Then cells were trypsinized, centrifuged, and seeded into an ultra-low attachment 96-well plate in a volume of 100 µL (1.5 × 10^3 cancer cells and 1.5 × 10^3 human fibroblasts/well). The plate was placed on a magnetic drive and incubated for 2 days at 37°C in a humidified atmosphere containing 5% CO2. Then the fresh medium containing 10 µM of the tested compound was added to the wells. Spheroids were captured every two days using the Olympus IX73 inverted microscope (OLYMPUS CORPORATION, Tokyo, Japan). Quantitative analysis of compound anticancer activity in spheroids was performed using ImageJ, version 1.53o (National Institutes of Health, USA) and Microsoft Office Excel 2016 software (Microsoft Corporation, Redmond, WA, USA).
(§5) On the last day of incubation, 10 µL of WST-1 reagent (Sigma-Aldrich Co, St. Louis, MO, USA) was added to each well with spheroids. After 10 h of incubation, 50 µL of liquid from each well were transferred to the new 96-well plate and the absorbance was measured at 460 and 530 nm using a multi-detection microplate reader. Spheroid cell viability was calculated using a formula provided in Section 3.2.2.

melanoma IGR39 spheroids = experiment: 3D cell cultures (spheroids), IGR39; type: cell-based, human; details: 10 µM, 8 days of incubation
Protocol: as §4, §5

[6] = tested on: IGR39, MDA-MB-231 and Panc-1 cell lines; experiment: MTT cell viability assay, result stated for all tested cancer cell lines together; type: cell-based, human; details: 72 h
Protocol: as §1, §2, §3

[7] = tested on: MDA-MB-231 cell migration; experiment: 'Wound healing' cell migration assay, MDA-MB-231; type: cell-based, human; details: 10 µM, both after 24 h and 48 h of incubation
Protocol: (§6) Briefly, melanoma IGR39, human triple-negative breast cancer MDA-MB-231, and pancreatic carcinoma Panc-1 cells were seeded in 24-well plates at a density of 6 × 10^4 cells/well and incubated for 48 h in previously described cell culture medium at 37°C in a humidified atmosphere containing 5% CO2. Then the scratch was made using a 100 µL pipette tip. Cells were washed once with PBS, and the fresh medium containing 10 µM of compounds 4, 7, 8, 10, 14, 17, and 18 was added. Medium containing 0.1% DMSO was used as a negative control. Cells were incubated at 37 °C in a humidified atmosphere containing 5% CO2.
(§7) The ‘Wounds’ were captured at the intervals of 0 h, 24 h, 48 h and 72 h (only for the Panc-1 cell line) from scratch under the phase contrast microscope at a 4× magnification. The wound area was analysed using the ImageJ program (National Institute of Health, Bethesda, MD, USA).

[8] = tested on: IGR39, MDA-MB-231 and Panc-1 cell migration; experiment: 'Wound healing' cell migration assay, stated for all tested cell lines; type: cell-based, human; details: 10 µM, compared to the control
Protocol: as §6, §7

melting point: 196 to 197 °C
Structure (SMILES): CSc1ccc(C=NNC(=O)CSc2nnc(CCNc3ccccc3)n2-c2ccccc2)cc1 [Compound 19, N′-(4-(methylthio)benzylidene)-2-((4-phenyl-5-(2-(phenylamino)ethyl)-4H-1,2,4-triazol-3-yl)thio)acetohydrazide]
activity towards the triple-negative breast cancer cell line (screening) ([1]; 50 µM, 72 h): relatively higher activity | activity against the IGR39 cell line (screening) ([2]; 50 µM, 72 h): least active

melting point: 121 to 122 °C
Structure (SMILES): CCOC(=O)CSC1NN=C(CCNc2ccccc2)N1c1ccccc1 (centres unmarked) [Compound 2, Ethyl 2-((4-phenyl-3-(2-(phenylamino)ethyl)-4,5-dihydro-1H-1,2,4-triazol-5-yl)thio)acetate]

melting point: 112 to 113 °C
Structure (SMILES): NNC(=O)CSc1nnc(CCNc2ccccc2)n1-c1ccccc1 [Compound 3, 2-((4-Phenyl-5-(2-(phenylamino)ethyl)-4H-1,2,4-triazol-3-yl)thio)acetohydrazide]

melting point: 258 to 259 °C | EC50 [4]: 38.5 ± 1.6 µM
Structure (SMILES): O=C(CSc1nnc(CCNc2ccccc2)n1-c1ccccc1)NN=C1C(=O)Nc2ccc(OC(F)(F)F)cc21 [Compound 8, N′-(2-oxo-5-(trifluoromethoxy)indolin-3-ylidene)-2-((4-phenyl-5-(2-(phenylamino)ethyl)-4H-1,2,4-triazol-3-yl)thio)acetohydrazide]
activity against the IGR39 cell line (screening) ([2]; 50 µM, 72 h): most active | cytotoxicity against fibroblasts ([3]; compared with the other selected compounds): lower cytotoxicity against fibroblasts

EC50 ([6]; Homo sapiens, range over cancer cell lines, read-out: EC50 values against the tested cancer cell lines (range)): 2 to 17 µM | melting point: 219 to 220 °C
Structure (SMILES): O=C(CSc1nnc(CCNc2ccccc2)n1-c1ccccc1)NN=Cc1cc([N+](=O)[O-])ccc1O [Compound 18, N′-(2-hydroxy-5-nitrobenzylidene)-2-((4-phenyl-5-(2-(phenylamino)ethyl)-4H-1,2,4-triazol-3-yl)thio)acetohydrazide]
activity in 3D cell cultures (spheroids) [5]: most active | melanoma IGR39 spheroid growth (melanoma IGR39 spheroids): mostly inhibited | activity against all tested cancer cell lines (screening) ([6]; 50 µM): most active

EC50 ([1]; Homo sapiens, MDA-MB-231, 72 h, serial dilutions 50-1.56 µM, n = 3, read-out: EC50 against MDA-MB-231): 9.7 ± 1.6 µM | EC50 ([2]; Homo sapiens, IGR-39, 72 h, serial dilutions 50-1.56 µM, n = 3, read-out: EC50 against IGR39): 22.3 ± 2.5 µM | melting point: 169 to 170 °C | EC50 [4]: 26.2 ± 1 µM
Structure (SMILES): CN(C)c1ccc(C=NNC(=O)CSc2nnc(CCNc3ccccc3)n2-c2ccccc2)cc1 [Compound 10, N′-(4-(dimethylamino)benzylidene)-2-((4-phenyl-5-(2-(phenylamino)ethyl)-4H-1,2,4-triazol-3-yl)thio)acetohydrazide]
selectivity against the melanoma IGR39 cell line (screening) ([2]; 50 µM, 72 h): moderate selectivity | MDA-MB-231 cell migration [7]: migrated slower | EC50 ([3]; Homo sapiens, Fibroblast, serial dilutions 50-1.56 µM, n = 3, read-out: EC50 against fibroblasts): 61.4 ± 2.8 µM | effect on cell migration [8]: inhibited all cancer cell migration

melting point: 238 to 239 °C
Structure (SMILES): COc1ccc2c(c1)C(=NNC(=O)CSc1nnc(CCNc3ccccc3)n1-c1ccccc1)C(=O)N2 [Compound 5, N′-(5-methoxy-2-oxoindolin-3-ylidene)-2-((4-phenyl-5-(2-(phenylamino)ethyl)-4H-1,2,4-triazol-3-yl)thio)acetohydrazide]

melting point: 233 to 234 °C
Structure (SMILES): O=C(CSc1nnc(CCNc2ccccc2)n1-c1ccccc1)NN=Cc1ccc(C(=O)O)cc1 [Compound 13, 4-((2-(2-((4-Phenyl-5-(2-(phenylamino)ethyl)-4H-1,2,4-triazol-3-yl)thio)acetyl)hydrazono)methyl)benzoic acid]

melting point: 209 to 210 °C
Structure (SMILES): O=C(CSc1nnc(CCNc2ccccc2)n1-c1ccccc1)NN=Cc1ccncc1 [Compound 11, 2-((4-Phenyl-5-(2-(phenylamino)ethyl)-4H-1,2,4-triazol-3-yl)thio)-N′-(pyridin-4-ylmethylene)acetohydrazide]

melting point: 119 to 120 °C
Structure (SMILES): O=C(CSc1nnc(CCNc2ccccc2)n1-c1ccccc1)NN=Cc1c[nH]nc1-c1ccccc1 [Compound 15, N′-((3-phenyl-1H-pyrazol-4-yl)methylene)-2-((4-phenyl-5-(2-(phenylamino)ethyl)-4H-1,2,4-triazol-3-yl)thio)acetohydrazide]

melting point: 274 to 275 °C
Structure (SMILES): O=C(CSc1nnc(CCNc2ccccc2)n1-c1ccccc1)NN=C1C(=O)Nc2ccc([N+](=O)[O-])cc21 [Compound 6, N′-(5-nitro-2-oxoindolin-3-ylidene)-2-((4-phenyl-5-(2-(phenylamino)ethyl)-4H-1,2,4-triazol-3-yl)thio)acetohydrazide]

melting point: 62 to 63 °C
Structure (SMILES): Cn1ccc(C=NNC(=O)CSc2nnc(CCNc3ccccc3)n2-c2ccccc2)n1 [Compound 16, N′-((1-methyl-1H-pyrazol-3-yl)methylene)-2-((4-phenyl-5-(2-(phenylamino)ethyl)-4H-1,2,4-triazol-3-yl)thio)acetohydrazide]

melting point: 92 to 93 °C
Structure (SMILES): O=C(CSc1nnc(CCNc2ccccc2)n1-c1ccccc1)NN=Cc1cccnc1 [Compound 12, 2-((4-Phenyl-5-(2-(phenylamino)ethyl)-4H-1,2,4-triazol-3-yl)thio)-N′-(pyridin-3-ylmethylene)acetohydrazide]

melting point: 266 to 267 °C
Structure (SMILES): O=C(CSc1nnc(CCNc2ccccc2)n1-c1ccccc1)NN=C1C(=O)Nc2ccc(F)cc21 [Compound 7, N′-(5-fluoro-2-oxoindolin-3-ylidene)-2-((4-phenyl-5-(2-(phenylamino)ethyl)-4H-1,2,4-triazol-3-yl)thio)acetohydrazide]
activity against the IGR39 cell line (screening) ([2]; 50 µM, 72 h): most active

melting point: 189 to 190 °C
Structure (SMILES): Cc1ccc(C=NNC(=O)CSc2nnc(CCNc3ccccc3)n2-c2ccccc2)cc1 [Compound 9, N′-(4-methylbenzylidene)-2-((4-phenyl-5-(2-(phenylamino)ethyl)-4H-1,2,4-triazol-3-yl)thio)acetohydrazide]
